In patent publication US20240115654A1, “INTRAVENOUS ADMINISTRATION OF ENGINEERED ANTIMICROBIAL AMPHIPHILIC PEPTIDES” (priority 2021, published 2024):

Tested on: P. aeruginosa strains (PAO1 and 2 clinical isolates)
Test: Determination of bacterial resistance, passage at 0.5×MIC with daily MIC
Type: cell-based, Pseudomonas aeruginosa
Settings: three P. aeruginosa strains, exposure at 0.5×MIC, FIG. 20
From the text: Each antibiotic was compared for their propensity to select for bacterial resistance phenotypes in vitro.

Substance: Colistin [reference compound]
- time to development of resistance (fold MIC >10): ≤ 13 days
